# Experiments:
# Experiment in all cases: radiometric filter-binding kinase assay
# MST4 (human) = MST4 (human) (UniProt Q9P289)
# RPS6KA1 KD1 KD2 (human) = RPS6KA1 KD1 KD2 (human) (UniProt Q15418)
# NEK2 (human) = NEK2 (human) (UniProt P51955)
# MAPK13 (human) = MAPK13 (human) (UniProt O15264)
# BRSK2 (human) = BRSK2 (human) (UniProt Q8IWQ3)
# EPHB3 (human) = EPHB3 (human) (UniProt P54753)
# MAPK10 (human) = MAPK10 (human) (UniProt P53779)
# MAPK8 (human) = MAPK8 (human) (UniProt P45983)
# DYRK2 (human) = DYRK2 (human) (UniProt Q92630)
# AURKA (human) = AURKA (human) (UniProt O14965)
# MKNK1 (human) = MKNK1 (human) (UniProt Q9BUB5)
# MAP3K11 (human) = MAP3K11 (human) (UniProt Q16584)
# MAPK1 (human) = MAPK1 (human) (UniProt P28482)
# Chain of MAPK1 (human) (P28482 whole entry, looked up): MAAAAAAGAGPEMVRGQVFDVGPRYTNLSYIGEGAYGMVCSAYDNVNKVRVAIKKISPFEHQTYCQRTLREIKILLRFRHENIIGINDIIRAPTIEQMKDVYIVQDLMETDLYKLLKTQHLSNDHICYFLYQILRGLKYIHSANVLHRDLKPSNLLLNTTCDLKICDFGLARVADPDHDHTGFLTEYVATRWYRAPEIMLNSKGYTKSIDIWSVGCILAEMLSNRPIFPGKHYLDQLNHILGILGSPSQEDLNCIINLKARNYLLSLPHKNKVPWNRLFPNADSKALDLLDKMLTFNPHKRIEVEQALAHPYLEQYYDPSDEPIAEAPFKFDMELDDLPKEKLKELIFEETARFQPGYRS
# CaMK1 (human) = CaMK1 (human) (UniProt Q14012)
# DYRK1A (human) = DYRK1A (human) (UniProt Q13627)
# MAPKAPK3 (human) = MAPKAPK3 (human) (UniProt Q16644)
# Chain of MAPKAPK3 (human) (Q16644 whole entry, looked up): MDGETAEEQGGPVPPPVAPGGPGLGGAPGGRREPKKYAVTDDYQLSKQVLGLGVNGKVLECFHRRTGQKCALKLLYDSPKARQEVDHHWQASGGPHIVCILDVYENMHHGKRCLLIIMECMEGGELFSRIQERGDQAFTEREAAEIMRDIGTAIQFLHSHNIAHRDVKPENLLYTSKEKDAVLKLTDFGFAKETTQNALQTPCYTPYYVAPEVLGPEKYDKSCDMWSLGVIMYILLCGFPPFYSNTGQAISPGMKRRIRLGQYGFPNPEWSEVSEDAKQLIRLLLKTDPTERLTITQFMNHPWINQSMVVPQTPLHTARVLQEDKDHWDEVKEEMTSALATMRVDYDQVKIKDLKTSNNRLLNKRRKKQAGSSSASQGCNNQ
# MARK2 (human) = MARK2 (human) (UniProt Q7KZI7)
# Chain of MARK2 (human) (Q7KZI7 whole entry, looked up): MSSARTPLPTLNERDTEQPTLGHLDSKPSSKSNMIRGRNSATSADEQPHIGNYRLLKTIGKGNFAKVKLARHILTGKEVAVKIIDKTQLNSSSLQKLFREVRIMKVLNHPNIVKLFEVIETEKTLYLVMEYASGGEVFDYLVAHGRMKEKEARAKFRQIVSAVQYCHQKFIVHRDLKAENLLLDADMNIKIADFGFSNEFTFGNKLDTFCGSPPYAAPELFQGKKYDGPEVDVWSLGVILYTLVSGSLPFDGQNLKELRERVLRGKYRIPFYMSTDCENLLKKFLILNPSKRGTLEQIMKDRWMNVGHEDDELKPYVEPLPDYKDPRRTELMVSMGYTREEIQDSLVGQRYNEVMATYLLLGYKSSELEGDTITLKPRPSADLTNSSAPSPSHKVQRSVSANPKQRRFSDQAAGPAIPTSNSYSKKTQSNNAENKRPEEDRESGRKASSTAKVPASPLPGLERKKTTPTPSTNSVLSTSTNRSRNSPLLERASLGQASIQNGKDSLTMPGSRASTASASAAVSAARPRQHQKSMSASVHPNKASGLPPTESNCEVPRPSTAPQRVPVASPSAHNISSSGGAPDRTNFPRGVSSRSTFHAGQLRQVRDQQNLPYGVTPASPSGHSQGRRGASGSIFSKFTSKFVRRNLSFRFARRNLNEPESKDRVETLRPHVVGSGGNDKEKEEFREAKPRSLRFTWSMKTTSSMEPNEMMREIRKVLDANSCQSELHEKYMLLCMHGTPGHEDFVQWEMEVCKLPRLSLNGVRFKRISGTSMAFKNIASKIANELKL
# MAPK12 (human) = MAPK12 (human) (UniProt P53778)
# Chain of MAPK12 (human) (P53778 whole entry, looked up): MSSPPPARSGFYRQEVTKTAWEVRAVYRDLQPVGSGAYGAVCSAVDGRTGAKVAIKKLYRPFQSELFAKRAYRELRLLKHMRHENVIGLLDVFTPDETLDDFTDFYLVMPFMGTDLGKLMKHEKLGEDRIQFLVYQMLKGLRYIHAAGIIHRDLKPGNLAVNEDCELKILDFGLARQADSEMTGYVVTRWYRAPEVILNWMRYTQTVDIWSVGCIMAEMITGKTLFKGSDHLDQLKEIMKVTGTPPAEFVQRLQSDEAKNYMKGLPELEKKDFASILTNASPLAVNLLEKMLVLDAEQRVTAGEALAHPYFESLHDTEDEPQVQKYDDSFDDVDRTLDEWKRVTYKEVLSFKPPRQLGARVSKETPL
# [1] = test system: SGK1 (human), O00141 [S422D]
# PAK4 (human) = PAK4 (human) (UniProt O96013)
# Chain of PAK4 (human) (O96013 whole entry, looked up): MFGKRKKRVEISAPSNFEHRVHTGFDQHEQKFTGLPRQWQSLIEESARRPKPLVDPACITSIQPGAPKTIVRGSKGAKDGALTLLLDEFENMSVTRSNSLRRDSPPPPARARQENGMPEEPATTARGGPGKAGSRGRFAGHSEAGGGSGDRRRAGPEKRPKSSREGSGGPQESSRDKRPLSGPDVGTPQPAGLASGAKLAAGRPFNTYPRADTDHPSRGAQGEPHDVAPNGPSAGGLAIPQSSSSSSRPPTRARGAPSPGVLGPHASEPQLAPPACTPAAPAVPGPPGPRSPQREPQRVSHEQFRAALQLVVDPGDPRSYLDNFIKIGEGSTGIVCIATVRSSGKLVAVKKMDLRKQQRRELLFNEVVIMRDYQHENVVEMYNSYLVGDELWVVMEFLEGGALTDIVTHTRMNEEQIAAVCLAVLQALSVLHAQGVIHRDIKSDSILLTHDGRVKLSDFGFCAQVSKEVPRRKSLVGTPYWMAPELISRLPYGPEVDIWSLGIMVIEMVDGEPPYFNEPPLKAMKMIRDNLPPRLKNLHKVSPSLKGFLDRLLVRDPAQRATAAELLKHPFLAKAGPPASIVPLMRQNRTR
# MAPK3 (human) = MAPK3 (human) (UniProt P27361)
# PRKAA1 or PRKAA2 (rat) = settings: accession and sequence are those of the human protein
# HIPK2 (human) = HIPK2 (human) (UniProt Q9H2X6)
# PLK1 (human) = PLK1 (human) (UniProt P53350)
# IKBKE (human) = IKBKE (human) (UniProt Q14164)
# PRKACA (human) = PRKACA (human) (UniProt P17612)
# EPHB2 (human) = EPHB2 (human) (UniProt P29323)
# Chain of EPHB2 (human) (P29323 whole entry, looked up): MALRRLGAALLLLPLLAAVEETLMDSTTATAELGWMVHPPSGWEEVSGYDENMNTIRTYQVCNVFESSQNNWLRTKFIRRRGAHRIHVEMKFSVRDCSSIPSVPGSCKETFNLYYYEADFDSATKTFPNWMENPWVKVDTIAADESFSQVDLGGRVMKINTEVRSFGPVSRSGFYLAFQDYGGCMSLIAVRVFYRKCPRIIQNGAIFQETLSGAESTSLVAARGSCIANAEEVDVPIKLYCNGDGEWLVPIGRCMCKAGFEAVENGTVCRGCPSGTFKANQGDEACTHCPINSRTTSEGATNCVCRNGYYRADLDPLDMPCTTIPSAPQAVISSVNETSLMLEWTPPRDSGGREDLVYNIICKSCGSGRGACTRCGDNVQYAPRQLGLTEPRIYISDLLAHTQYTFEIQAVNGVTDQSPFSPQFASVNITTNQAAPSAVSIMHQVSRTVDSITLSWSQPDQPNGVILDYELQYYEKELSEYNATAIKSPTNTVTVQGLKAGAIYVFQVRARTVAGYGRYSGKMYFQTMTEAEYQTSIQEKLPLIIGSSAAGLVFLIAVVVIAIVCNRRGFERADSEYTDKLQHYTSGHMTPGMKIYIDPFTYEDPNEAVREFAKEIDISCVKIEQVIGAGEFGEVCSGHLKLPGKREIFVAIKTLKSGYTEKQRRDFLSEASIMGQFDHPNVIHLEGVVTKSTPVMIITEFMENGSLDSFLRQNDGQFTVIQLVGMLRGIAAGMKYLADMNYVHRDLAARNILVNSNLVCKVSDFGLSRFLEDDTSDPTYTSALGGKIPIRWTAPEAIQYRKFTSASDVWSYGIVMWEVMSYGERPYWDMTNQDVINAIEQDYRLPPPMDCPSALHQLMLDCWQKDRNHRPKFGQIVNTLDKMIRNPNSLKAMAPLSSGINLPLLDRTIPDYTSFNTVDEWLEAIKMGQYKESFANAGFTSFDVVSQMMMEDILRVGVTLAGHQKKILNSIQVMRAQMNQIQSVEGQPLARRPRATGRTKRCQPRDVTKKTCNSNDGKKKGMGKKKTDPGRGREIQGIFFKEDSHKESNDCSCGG
# SYK (human) = SYK (human) (UniProt P43405)
# CHEK2 (human) = CHEK2 (human) (UniProt O96017)
# ERBB4 (human) = ERBB4 (human) (UniProt Q15303)
# PAK7 (human) = PAK7 (human) (UniProt Q9P286)
# NUAK1 (human) = NUAK1 (human) (UniProt O60285)
# [2] = test system: AKT1 (human), P31749 [S473D]
# PRKCA (human) = PRKCA (human) (UniProt P17252)
# Chain of BRSK2 (human) (Q8IWQ3 whole entry, looked up): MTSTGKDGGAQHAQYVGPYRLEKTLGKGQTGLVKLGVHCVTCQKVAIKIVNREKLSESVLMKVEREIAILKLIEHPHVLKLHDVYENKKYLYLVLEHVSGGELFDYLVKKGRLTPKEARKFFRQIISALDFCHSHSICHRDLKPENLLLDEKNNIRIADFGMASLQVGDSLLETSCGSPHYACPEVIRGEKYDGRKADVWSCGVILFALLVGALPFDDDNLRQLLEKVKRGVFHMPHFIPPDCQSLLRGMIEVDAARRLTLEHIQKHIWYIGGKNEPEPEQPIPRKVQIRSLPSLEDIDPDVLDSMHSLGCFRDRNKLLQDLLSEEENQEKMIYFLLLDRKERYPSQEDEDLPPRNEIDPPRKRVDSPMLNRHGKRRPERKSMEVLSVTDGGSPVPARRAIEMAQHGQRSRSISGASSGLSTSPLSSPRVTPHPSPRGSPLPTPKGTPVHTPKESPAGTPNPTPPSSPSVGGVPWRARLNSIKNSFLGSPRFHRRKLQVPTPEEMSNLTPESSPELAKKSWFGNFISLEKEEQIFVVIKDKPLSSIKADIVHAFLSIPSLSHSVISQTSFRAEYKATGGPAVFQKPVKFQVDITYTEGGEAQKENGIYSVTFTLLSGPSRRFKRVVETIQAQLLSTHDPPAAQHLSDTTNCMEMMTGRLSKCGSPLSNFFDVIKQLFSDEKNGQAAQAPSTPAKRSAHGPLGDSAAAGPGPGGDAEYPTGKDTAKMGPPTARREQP
compound,measurement,setting,value
NC(=O)c1cc2c(-c3cccc(-c4ccccc4)c3)cnc(N)c2s1,residual activity,MST4 (human); compound 0.1 µM,102%
same,residual activity,MST4 (human); compound 1.0 µM,75%
same,residual activity,MST4 (human); compound 10.0 µM,35%
same,residual activity,RPS6KA1 KD1 KD2 (human); compound 0.1 µM,92%
same,residual activity,RPS6KA1 KD1 KD2 (human); compound 1.0 µM,65%
same,residual activity,RPS6KA1 KD1 KD2 (human); compound 10.0 µM,31%
same,residual activity,NEK2 (human); compound 0.1 µM,88%
same,residual activity,NEK2 (human); compound 1.0 µM,74%
same,residual activity,NEK2 (human); compound 10.0 µM,44%
same,residual activity,MAPK13 (human); compound 0.1 µM,83%
same,residual activity,MAPK13 (human); compound 1.0 µM,77%
same,residual activity,MAPK13 (human); compound 10.0 µM,36%
same,residual activity,BRSK2 (human); compound 0.1 µM,109%
same,residual activity,BRSK2 (human); compound 1.0 µM,108%
same,residual activity,BRSK2 (human); compound 10.0 µM,130%
same,residual activity,EPHB3 (human); compound 0.1 µM,128%
same,residual activity,EPHB3 (human); compound 1.0 µM,113%
same,residual activity,EPHB3 (human); compound 10.0 µM,92%
same,residual activity,MAPK10 (human); compound 0.1 µM,97%
same,residual activity,MAPK10 (human); compound 10.0 µM,46%
same,residual activity,MAPK8 (human); compound 0.1 µM,111%
same,residual activity,MAPK8 (human); compound 1.0 µM,69%
same,residual activity,MAPK8 (human); compound 10.0 µM,15%
same,residual activity,DYRK2 (human); compound 0.1 µM,101%
same,residual activity,DYRK2 (human); compound 1.0 µM,77%
same,residual activity,DYRK2 (human); compound 10.0 µM,88%
same,residual activity,AURKA (human); compound 0.1 µM,95%
same,residual activity,AURKA (human); compound 1.0 µM,99%
same,residual activity,AURKA (human); compound 10.0 µM,89%
same,residual activity,MKNK1 (human); compound 0.1 µM,107%
same,residual activity,MKNK1 (human); compound 1.0 µM,114%
same,residual activity,MKNK1 (human); compound 10.0 µM,99%
same,residual activity,MAP3K11 (human); compound 0.1 µM,74%
same,residual activity,MAP3K11 (human); compound 1.0 µM,19%
same,residual activity,MAP3K11 (human); compound 10.0 µM,4%
same,residual activity,MAPK1 (human); compound 0.1 µM,81%
same,residual activity,MAPK1 (human); compound 1.0 µM,35%
same,residual activity,MAPK1 (human); compound 10.0 µM,6%
same,residual activity,CaMK1 (human); compound 0.1 µM,107%
same,residual activity,CaMK1 (human); compound 1.0 µM,90%
same,residual activity,CaMK1 (human); compound 10.0 µM,38%
same,residual activity,DYRK1A (human); compound 0.1 µM,72%
same,residual activity,DYRK1A (human); compound 1.0 µM,21%
same,residual activity,DYRK1A (human); compound 10.0 µM,5%
same,residual activity,MAPKAPK3 (human); compound 0.1 µM,93%
same,residual activity,MAPKAPK3 (human); compound 1.0 µM,84%
same,residual activity,MAPKAPK3 (human); compound 10.0 µM,69%
same,residual activity,MARK2 (human); compound 0.1 µM,103%
same,residual activity,MARK2 (human); compound 1.0 µM,65%
same,residual activity,MARK2 (human); compound 10.0 µM,28%
same,residual activity,MAPK12 (human); compound 0.1 µM,93%
same,residual activity,MAPK12 (human); compound 1.0 µM,76%
same,residual activity,MAPK12 (human); compound 10.0 µM,38%
same,residual activity,[1]; compound 0.1 µM,92%
same,residual activity,[1]; compound 1.0 µM,58%
same,residual activity,[1]; compound 10.0 µM,46%
same,residual activity,PAK4 (human); compound 0.1 µM,65%
same,residual activity,PAK4 (human); compound 1.0 µM,18%
same,residual activity,PAK4 (human); compound 10.0 µM,7%
same,residual activity,MAPK3 (human); compound 1.0 µM,58%
same,residual activity,MAPK3 (human); compound 10.0 µM,16%
same,residual activity,PRKAA1 or PRKAA2 (rat); compound 0.1 µM,99%
same,residual activity,PRKAA1 or PRKAA2 (rat); compound 1.0 µM,95%
same,residual activity,PRKAA1 or PRKAA2 (rat); compound 10.0 µM,68%
same,residual activity,HIPK2 (human); compound 0.1 µM,64%
same,residual activity,HIPK2 (human); compound 1.0 µM,22%
same,residual activity,HIPK2 (human); compound 10.0 µM,9%
same,residual activity,PLK1 (human); compound 0.1 µM,108%
same,residual activity,PLK1 (human); compound 1.0 µM,98%
same,residual activity,PLK1 (human); compound 10.0 µM,97%
same,residual activity,IKBKE (human); compound 0.1 µM,109%
same,residual activity,IKBKE (human); compound 1.0 µM,86%
same,residual activity,IKBKE (human); compound 10.0 µM,31%
same,residual activity,PRKACA (human); compound 0.1 µM,80%
same,residual activity,PRKACA (human); compound 1.0 µM,103%
same,residual activity,PRKACA (human); compound 10.0 µM,96%
same,residual activity,EPHB2 (human); compound 0.1 µM,90%
same,residual activity,EPHB2 (human); compound 1.0 µM,74%
same,residual activity,EPHB2 (human); compound 10.0 µM,24%
same,residual activity,SYK (human); compound 0.1 µM,96%
same,residual activity,SYK (human); compound 1.0 µM,88%
same,residual activity,SYK (human); compound 10.0 µM,56%
same,residual activity,CHEK2 (human); compound 0.1 µM,104%
same,residual activity,CHEK2 (human); compound 1.0 µM,37%
same,residual activity,CHEK2 (human); compound 10.0 µM,18%
same,residual activity,ERBB4 (human); compound 1.0 µM,40%
same,residual activity,ERBB4 (human); compound 10.0 µM,17%
same,residual activity,PAK7 (human); compound 0.1 µM,79%
same,residual activity,PAK7 (human); compound 1.0 µM,37%
same,residual activity,PAK7 (human); compound 10.0 µM,16%
same,residual activity,NUAK1 (human); compound 0.1 µM,81%
same,residual activity,NUAK1 (human); compound 1.0 µM,24%
same,residual activity,NUAK1 (human); compound 10.0 µM,6%
same,residual activity,[2]; compound 0.1 µM,105%
same,residual activity,[2]; compound 1.0 µM,104%
same,residual activity,[2]; compound 10.0 µM,108%
same,residual activity,PRKCA (human); compound 0.1 µM,94%
same,residual activity,PRKCA (human); compound 1.0 µM,64%
same,residual activity,PRKCA (human); compound 10.0 µM,18%

# — the kinase profiling compilation of Christmann-Franck et al. (2016)
